One series relates to GRP78. Description: siRNA knockdown in MCF-7/BUS cells, Western blot for Grp78. Type of series: cell-based, human. The settings on record: transient transfection, vs control siRNA. From the text:
(§1) Western blots and quantitation. The Western blots were done as described (Lee, Methods 35:373-81 (2005)). The primary antibodies were goat anti-BIK (N-19, Santa Cruz Biotechnology, Santa Cruz, Calif.), rat anti-Grp78 (76-E6, Santa Cruz Biotechnology), rat anti-GRP94, rabbit anti-calnexin, rabbit anti-calreticulin (Stressgen, Ann Arbor, Mich.), mouse anti-Flag M2, mouse anti-poly(ADP-ribose) polymerase (PARP; F-2, Santa Cruz Biotechnology, Santa Cruz, Calif.), and mouse anti-h-actin (Sigma-Aldrich, St. Louis, Mo.). Anti-h-actin was diluted at 1:2,000; anti-BIK at 1:500; and other antibodies at 1:1,000. Respective horseradish peroxidase-conjugated secondary antibodies (Santa Cruz Biotechnology, Santa Cruz, Calif.) at 1:1,000 dilution were used. The Western blots were quantitated by Fluor-S® MultiImager (Bio-Rad, Hercules, Calif.) according to the manufacturer's instructions. All quantitations were normalized against h-actin.
(§2) Small interfering RNA. The siRNA against Grp78 is 5′-gagcgcauugauacuagadTdT-3′ (SEQ ID NO:1) as described (Tsutsumi et al., Oncogene 25:1018-29 (2006)). The siRNA against Bik is 5′-[…]-3′ (SEQ ID NO:2) (Hur et al., PNAS 101:2351-6 (2004)). The control siRNA is Silencer Negative Control #3 siRNA (Ambion, Foster City, Calif.) composed of a 19-bp scrambled sequence without significant homology to any known gene sequences from mouse, rat, or human. […]
(In western blotting, separated proteins are transferred to a membrane and probed.)

Series [1] deals with GRP94. Put plainly: siRNA knockdown in MCF-7/BUS cells, Western blot for GRP94. Type of series: cell-based, human. The settings on record: transient transfection.
Description: as §1, §2

The subject of a further series is MCF-7/BUS cells. Description: Mitochondrial membrane potential staining (apoptosis). Type of series: cell-based, human. From the text:
(§3) Cell lines and culture conditions. The estrogen-dependent cell line MCF-7/BUS was provided by A. M. Soto (Tufts University, Medford, Mass.) and has been described (Soto et al., Environ. Health Perspect. 103:113-22 (1995)). The human embryonic kidney 293T cells and MCF-7/BUS cells were maintained in DMEM supplemented with 10% fetal bovine serum. Estrogen starvation of MCF-7/BUS cells was done as described (Hur et al., PNAS 101:2351-6 (2004)). Briefly, the cells were washed thrice with phenol red-free DMEM and incubated in washing medium at 37° C. for 60 minutes. The MCF-7/BUS cells were then cultured in phenol red-free DMEM supplemented with 5% charcoal/dextran-stripped fetal bovine serum for 24 to 72 hours as indicated. For etoposide treatment, the cells were incubated with 50 μmol/L etoposide for 6 hours and cultured for another 24 hours before harvest.
For construction of the adenovirus expression vectors, either GFP or a His-tagged full-length hamster Grp78 cDNA was subcloned into an adenoviral vector and its expression was driven by the cytomegalovirus promoter. […] For mitochondrial membrane potential staining, because GFP interferes with the green fluorescence of this assay, the adenovirus empty vector was used as the negative control. […]
Cell death and apoptotic assays. […] The cell cultures were then washed with PBS and examined under a fluorescence microscope. […]

The subject of the next series is PARP. Put plainly: PARP cleavage by Western blot in estrogen-starved cells. The series is classed as cell-based, human. The settings on record: MCF-7/BUS cells, estrogen starvation; for PARP cleavage: vs control siRNA. As to the method: In FIG. 8A, cell lysates from MCF-7/BUS cells transfected with siGrp78 oligomers or control siRNA (siCtrl) for 24 hours and subsequently cultured in regular or estrogen-free medium (ES) for 24 hours were subjected to SDS-PAGE and Western blotting to probe for levels of GRP78, GRP94 and β-actin. In FIG. 8B, MCF-7/BUS cells were cultured either in regular or in estrogen-free (ES) medium for 24 hours after transfection of siGrp78 or siCtrl as indicated. The percent of apoptotic cells was assessed by mitochondrial membrane potential staining. The standard errors are indicated. In FIG. 8C, MCF-7/BUS cells were transfected with control siRNA, siGrp78, or siBik, alone or in combination as indicated for 24 hours and then cultured in ES medium for 24 hours. The total amount of siRNA in each condition was adjusted to be the same by addition of siCtrl. Cell lysates were collected and subjected to SDS-PAGE and probed for levels of GRP78, BIK and β-actin by Western blotting. In FIG. 8D, cell lysates from FIG. 8C were subjected to SDS-PAGE and Western blotted with anti-PARP antibody. The Western signal of full-length PARP and apoptosis-signature fragment were quantitated by Fluor-S™ MultiImager (Bio-Rad, Hercules, Calif.). The relative PARP cleavages are shown with the PARP cleavage in cells transfected with control siRNA set as 1. Columns in FIGS. 8B and 8D represent the mean from three or two experiments, respectively. Standard error: * p<0.05, ** p<0.01.
Cell lines and culture conditions. The estrogen-dependent cell line MCF-7/BUS was provided by A. M. Soto (Tufts University, Medford, Mass.) and has been described (Soto et al., Environ. Health Perspect. 103:113-22 (1995)). The human embryonic kidney 293T cells and MCF-7/BUS cells were maintained in DMEM supplemented with 10% fetal bovine serum. […]
Western blots and quantitation. […] The Western blots were quantitated by Fluor-S® MultiImager (Bio-Rad, Hercules, Calif.) according to the manufacturer's instructions. All quantitations were normalized against h-actin.

In a further series the target is endogenous BIK (human) (UniProt Q13323). Description: cell-based or functional assay.
Series [2] has as its system BIK. Description: siRNA knockdown in MCF-7/BUS cells, Western blot for BIK. Type of series: cell-based, human. The settings on record: estrogen starvation, vs control siRNA.
Description: as §1, §2

Series [3] concerns BIK. Put plainly: BIK protein induction under stress conditions (Western blot). The series is classed as cell-based, human.
Description: as §3, §1

The next series deals with Flag-tagged BIK-b5TM (UniProt Q13323). Description: cell-based or functional assay.
In another series the target is T1, GST protein (UniProt P08515 1-218 = GST).
T1 construct: Negative control in the pull-down assays; also called Glutathione S-transferase
Put plainly: GST pull-down from 293T total cell extract, Western blot. As to the method:
(§4) FIGS. 5A to 5D show selective association of endogenous BIK with GRP78. In FIG. 5A, 293T cells were either non-treated or treated with 50 μM etoposide (Etop) for 6 hours and were harvested 24 hours later. MCF-7/BUS cells were cultured either in regular DMEM or in estrogen-free DMEM for 48 hours. Western blots of total protein lysates from these cells were performed with antibodies against BIK and β-actin. In FIG. 5B, cell lysates prepared from control and Etop-treated 293T cells were immunoprecipitated with anti-BIK or normal IgG The immunoprecipitates were applied in parallel with input lysates to SDS-PAGE and Western blotted with antibodies against GRP78, GRP94, calnexin, calreticulin and BIK. […] In FIG. 5D, lysates of 293T cells were incubated with GST-GRP78, GST-BIK, or GST linked beads. The bound proteins were resolved by SDS-PAGE and probed for GRP78 or BIK by Western blotting.
Glutathione S-transferase pull-down assays. Glutathione S-transferase (GST)-Grp78 and GST-BIK were constructed by subcloning full-length hamster Grp78 cDNA and human BIK into the BamH1/XhoI and BamH1/Sal1 sites of pGEX 4T1, respectively (Pharmacia Biotech, Piscataway, N.J.). Conditions for the GST pull-down assays have been described (Wu and Lee, Nucleic Acids Res. 26:4837-45 (1998)) with the following modifications. […]

Series [4] addresses GRP94 (human, UniProt P14625 22-803). Put plainly: co-immunoprecipitation with anti-BIK from 293T lysate, Western blot. Here is the method: as §4
(§5) Communoprecipitation assays. The coimmunoprecipitation assays were done as described (Reddy et al., J. Biol. Chem. 278:20915-24 (2003)). Briefly, 500 μg of total protein extract from each sample were pretreated with protein G-Sepharose beads (Upstate, Chicago, Ill.), followed by incubation with 5 Ag of goat anti-BIK antibody (N-19, Santa Cruz Biotechnology, Santa Cruz, Calif.) or mouse anti-Flag M2 antibody (Sigma-Aldrich, St. Louis, Mo.). For negative controls, the respective goat or mouse immunoglobulin G (IgG; Santa Cruz Biotechnology, Santa Cruz, Calif.) was used.

Another series concerns the target T2, calnexin (human, UniProt P27824 21-592).
T2 sequence (looked up): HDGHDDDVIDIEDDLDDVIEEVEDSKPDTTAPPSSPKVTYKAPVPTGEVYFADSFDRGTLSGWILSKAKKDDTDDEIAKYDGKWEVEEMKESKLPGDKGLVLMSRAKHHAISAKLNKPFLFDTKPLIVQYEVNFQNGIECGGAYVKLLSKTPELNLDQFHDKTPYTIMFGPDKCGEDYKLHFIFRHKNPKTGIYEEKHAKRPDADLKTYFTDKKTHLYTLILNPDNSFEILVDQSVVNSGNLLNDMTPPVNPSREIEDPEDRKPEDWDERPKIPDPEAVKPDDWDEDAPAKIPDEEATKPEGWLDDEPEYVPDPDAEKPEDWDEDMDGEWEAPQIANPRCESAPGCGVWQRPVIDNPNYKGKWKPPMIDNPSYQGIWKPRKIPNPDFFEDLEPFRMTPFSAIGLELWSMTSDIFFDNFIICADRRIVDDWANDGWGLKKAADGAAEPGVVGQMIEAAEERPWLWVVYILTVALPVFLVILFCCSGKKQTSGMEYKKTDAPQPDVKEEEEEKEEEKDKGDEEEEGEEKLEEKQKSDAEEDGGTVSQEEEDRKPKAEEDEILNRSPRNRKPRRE
The series is described as above. Here is the method: as §4, §5

The target of the next series is T3, calreticulin (human, UniProt P27797 18-417).
T3 sequence (looked up): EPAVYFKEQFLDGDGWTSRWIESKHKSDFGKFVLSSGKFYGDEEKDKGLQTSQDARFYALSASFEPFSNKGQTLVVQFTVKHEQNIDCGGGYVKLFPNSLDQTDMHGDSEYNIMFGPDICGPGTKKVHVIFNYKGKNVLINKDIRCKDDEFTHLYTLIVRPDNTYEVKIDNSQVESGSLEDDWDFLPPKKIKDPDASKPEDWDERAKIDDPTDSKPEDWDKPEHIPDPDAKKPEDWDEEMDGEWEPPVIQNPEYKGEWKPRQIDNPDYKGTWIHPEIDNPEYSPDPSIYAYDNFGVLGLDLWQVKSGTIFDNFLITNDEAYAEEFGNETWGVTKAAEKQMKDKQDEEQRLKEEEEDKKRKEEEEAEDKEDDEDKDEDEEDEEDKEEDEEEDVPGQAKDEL
Described as above. As to the method: as §4, §5

d = 2'-deoxy (DNA); r = 2'-OH (RNA)

T1 sequence (P08515 whole entry): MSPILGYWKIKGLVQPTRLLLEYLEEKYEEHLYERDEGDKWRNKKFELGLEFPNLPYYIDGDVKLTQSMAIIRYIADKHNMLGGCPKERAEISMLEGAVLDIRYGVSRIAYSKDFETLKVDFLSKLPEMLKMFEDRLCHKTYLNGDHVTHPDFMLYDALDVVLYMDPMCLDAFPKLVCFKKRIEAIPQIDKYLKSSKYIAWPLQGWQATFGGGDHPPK
GRP94 (human, UniProt P14625 22-803), sequence (P14625 22-803 limits assumed): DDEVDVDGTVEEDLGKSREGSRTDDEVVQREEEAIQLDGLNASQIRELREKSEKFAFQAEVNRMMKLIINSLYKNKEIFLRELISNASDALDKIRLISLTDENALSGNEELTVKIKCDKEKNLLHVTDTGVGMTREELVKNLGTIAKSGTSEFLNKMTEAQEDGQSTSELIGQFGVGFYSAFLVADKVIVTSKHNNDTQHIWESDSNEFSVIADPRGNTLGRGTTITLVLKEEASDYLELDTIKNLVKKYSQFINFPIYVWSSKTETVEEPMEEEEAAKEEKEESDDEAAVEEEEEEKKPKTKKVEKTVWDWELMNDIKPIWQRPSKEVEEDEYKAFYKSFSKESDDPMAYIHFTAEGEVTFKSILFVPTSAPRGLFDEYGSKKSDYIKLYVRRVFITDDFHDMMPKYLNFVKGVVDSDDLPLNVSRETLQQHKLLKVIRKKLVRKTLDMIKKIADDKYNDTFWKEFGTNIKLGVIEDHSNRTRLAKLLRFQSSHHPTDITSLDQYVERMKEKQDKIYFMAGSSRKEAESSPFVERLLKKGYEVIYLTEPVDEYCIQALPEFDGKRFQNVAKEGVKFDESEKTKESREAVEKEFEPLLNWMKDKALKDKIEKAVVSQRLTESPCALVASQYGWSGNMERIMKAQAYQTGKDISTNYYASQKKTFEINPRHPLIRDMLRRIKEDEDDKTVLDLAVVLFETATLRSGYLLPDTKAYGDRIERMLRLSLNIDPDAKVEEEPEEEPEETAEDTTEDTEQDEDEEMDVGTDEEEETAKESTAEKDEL

“siRNA against Grp78: siRNA 5′-gagcgcauugauacuagadTdT-3′ (SEQ ID NO:1) (guide GAGCGCAUUGAUACUAGATT; sugars from the 5' end r18 d2, backbone not given here)”: the “level of Grp78 protein” value with GRP78 is given as “substantially reduced”. The “expression of GRP94” value with GRP94 [1] was “no effect”. The “effect on mitochondrial membrane potential” value in the series on MCF-7/BUS cells (MCF-7/BUS cells in normal culture medium) is on record as “little effect”. Moreover, in the series on MCF-7/BUS cells (MCF-7/BUS cells, estrogen starvation 24 hours, vs control siRNA), the apoptosis entry was “marked increase”. The PARP cleavage entry in the series with PARP was “increased”.
Turning to “His-tagged full-length hamster Grp78 (Ad-Grp78) (from UniProt P07823 19-654)”, the decrease in BAX activation by estrogen starvation (FACS with BAX conformation specific antibody) in MCF-7/BUS cells in the series with endogenous BIK (human) was 48%.
Take “siRNA against Bik: siRNA 5′-aagaccccucuccagagacau-3′ (SEQ ID NO:2) (AAGACCCCUCUCCAGAGACAU; RNA, backbone not given here)”: the “expression of BIK protein” value with BIK [2] was “substantially reduced”. Further, the “enhanced PARP cleavage mediated by knockdown of Grp78” value in the series on PARP (BIK knockdown combined with Grp78 knockdown) is “substantially reduced”. For the same molecule, the PARP cleavage entry in the series with PARP is given as “decreased”.
Consider tunicamycin, for which the “induction of BIK by ER stress inducers” value with BIK [3] (human cells) is recorded as “do not induce”.
In the case of `COc1cc([C@@H]2c3cc4c(cc3[C@@H](O[C@@H]3O[C@@H]5CO[C@@H](C)O[C@H]5[C@H](O)[C@H]3O)[C@H]3COC(=O)[C@H]23)OCO4)cc(OC)c1O` [etoposide], the “level of BIK protein” value in the series with BIK [3] (293T cells, 50 μmol/L etoposide 6 hours, harvested 24 hours later) is reported as “substantially elevated”.
For His-tagged Grp78, the fold decrease in apoptosis (mitochondrial membrane potential staining) in transfected 293T cells with Flag-tagged BIK-b5TM was determined as 3 fold.

B1: endogenous BIK (other, human, UniProt Q13323 1-160, looked up)
chain: MSEVRPLSRDILMETLLYEQLLEPPTMEVLGMTDSEEDLDPMEDFDSLECMEGSDALALRLACIGDEMDVSLRAPRLAQLSEVAMHSLGLAFIYDQTEDIRDVLRSFMDGFTTLKENIMRFWRSPNPGSWVSCEQVLLALLLLLALLLPLLSGGLHLLLK
notes: Endogenous protein from total cell extract of the human cell line 293T, untreated or etoposide-treated; also called BIK protein
As for B1, the binding result in the series with GST protein, with GRP94 [4], in the series with calnexin and in the series with calreticulin was “no binding” throughout.

The record behind these values is patent US20100015128A1, “GRP78 as a Predictor of Responsiveness to Therapeutic Agents” (UNIVERSITY OF SOUTHERN CALIFORNIA, priority 2006, published 2010).
